From the OligoGym collection
After the bases stand the sugars from the 5' end (letter, count) and the backbone: PS all phosphorothioate, else s phosphorothioate and o phosphodiester by linkage. Methylation of C is not given here. e = 2'-O-(2-methoxyethyl) (MOE); k = constrained ethyl (cEt); d = 2'-deoxy (DNA); m = 2'-O-methyl

Target: HSD17B13
Details: ASO, HepaRG

Sequence | target mRNA inhibition (1 µM) | further results
GACAACAAACAATGGG (sugars k3 d10 k3, PS) | 39% | –
GACAATTAACATTCGG (sugars k3 d10 k3, PS) | 69% | –
GACAGACCAAGTAGCT (sugars k3 d10 k3, PS) | 39% | –
GACAGTAGATTTGGTA (sugars k3 d10 k3, PS) | 34% | –
GACAGTTGAGTAGTGT (sugars k3 d10 k3, PS) | 46% | –
GACATGAGGTTTTGAT (sugars k3 d10 k3, PS) | 52% | –
GACATGAGGTTTTGAT (sugars kkdddddddddkekek, PS) | 55% | –
GACCTCAAATGTCTTG (sugars k3 d10 k3, PS) | 12% | –
GACGATGTGGCCATGA (sugars k3 d10 k3, PS) | 42% | –
GACTAAGGAGCTAGAT (sugars k3 d10 k3, PS) | 25% | –
GACTACATTAACACCA (sugars k3 d10 k3, PS) | 58% | –
GACTCCAAGTAGGAGT (sugars k3 d10 k3, PS) | 0% | –
GACTGTTGAGCTCAAA (sugars k3 d10 k3, PS) | 52% | –
GAGAAGATCGGCTGGA (sugars k3 d10 k3, PS) | 6% | –
GAGAAGGCGGTATCAT (sugars k3 d10 k3, PS) | 48% | –
GAGAATTGTTTAGTTC (sugars k3 d10 k3, PS) | 47% | –
GAGACATGAGGTTTTG (sugars k3 d1 m1 d8 k3, PS) | 61% | –
GAGACATGAGGTTTTG (sugars k3 d9 k3 e1, PS) | 61% | –
GAGACATGAGGTTTTG (sugars k3 d10 k3, PS) | 77% | target mRNA inhibition (0.02 µM): 0%; target mRNA inhibition (0.078 µM): 0%; target mRNA inhibition (0.313 µM): 22%; target mRNA inhibition (1.25 µM): 65%; target mRNA inhibition (5 µM): 88%
GAGATAAAGCTGCCTG (sugars k3 d9 k3 e1, PS) | 55% | –
GAGCTAGACAATTGCA (sugars k3 d10 k3, PS) | 73% | –
GAGGATAGTCCATGCA (sugars k3 d10 k3, PS) | 59% | –
GAGGATAGTGAACATA (sugars k3 d10 k3, PS) | 50% | –
GAGGGTCCACTTTTGG (sugars k3 d10 k3, PS) | 23% | –
GAGTATTTCCTCTGGG (sugars k3 d10 k3, PS) | 23% | –
GAGTTATTGTAGGGAT (sugars k3 d10 k3, PS) | 69% | –

Sequence | target mRNA inhibition (1 µM) | further results
GAGTTGCACCGTTTTG (sugars k3 d9 k3 e1, PS) | 62% | –
GATACACCAATGCAGT (sugars k3 d10 k3, PS) | 73% | –
GATACTATTCTCCAAC (sugars k3 d10 k3, PS) | 44% | –
GATAGAGCACATGGCC (sugars k3 d10 k3, PS) | 20% | –
GATAGTCCATGCAAAA (sugars k3 d10 k3, PS) | 64% | –
GATATACGATGGAACA (sugars k3 d10 k3, PS) | 46% | –
GATATACTGTCCCAGC (sugars k3 d10 k3, PS) | 34% | –
GATATGTCAATACTCC (sugars k3 d10 k3, PS) | 59% | –
GATATTATGTTCTTGG (sugars k3 d10 k3, PS) | 59% | –
GATATTCTGTGGCATG (sugars k3 d9 k3 e1, PS) | 71% | target mRNA inhibition (0.02 µM): 8%; target mRNA inhibition (0.078 µM): 0%; target mRNA inhibition (0.313 µM): 43%; target mRNA inhibition (1.25 µM): 65%; target mRNA inhibition (5 µM): 80%
GATAUTCTGTGGCATG (sugars k3 d1 m1 d8 k3, PS) | 60% | –
GATCAAATGTATGTGC (sugars k3 d10 k3, PS) | 25% | –
GATCCTATATACATCC (sugars k3 d10 k3, PS) | 49% | –
GATCTAAAACTGAAGG (sugars k3 d10 k3, PS) | 44% | –
GATCTAGAACACTTGC (sugars k3 d10 k3, PS) | 27% | –
GATGAGAGTCTTTCTT (sugars k3 d10 k3, PS) | 26% | –
GATGCTAAAAGCTCAC (sugars k3 d10 k3, PS) | 46% | –
GATGCTCCATAATAAT (sugars k3 d9 k3 e1, PS) | 15% | –
GATGGTAAGGAGTAGT (sugars k3 d10 k3, PS) | 28% | –
GATGTAGTGGGAGTCG (sugars k3 d10 k3, PS) | 67% | –
GATGTCAGACCTCTGT (sugars k3 d10 k3, PS) | 6% | –
GATGTTGACCTCAAAT (sugars k3 d10 k3, PS) | 0% | –
GATTAAGCAGAATTGT (sugars k3 d9 k3 e1, PS) | 28% | –
GATTAATTCCCTTCCA (sugars k3 d10 k3, PS) | 30% | –
GATTGAGTTCTCCACT (sugars k3 d10 k3, PS) | 45% | –
GATTGCATAAGAGCCA (sugars k3 d10 k3, PS) | 82% | target mRNA inhibition (0.02 µM): 6%; target mRNA inhibition (0.078 µM): 31%; target mRNA inhibition (0.313 µM): 57%; target mRNA inhibition (1.25 µM): 67%; target mRNA inhibition (5 µM): 58%
